Measurements: PubChem BioAssay (NCI)
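A five-concentration, 48-hour dose response in 96-well plates underlies each endpoint, interpolated linearly between surrounding concentrations. TGI is the concentration that stops growth completely.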

Legend:
Experiment in all cases: NCI-60 cell line screen, 48 h
HL-60(TB) leukemia = tested on: HL-60(TB) leukemia
UACC-62 melanoma = tested on: UACC-62 melanoma
HCT-116 colon = tested on: HCT-116 colon
UACC-257 melanoma = tested on: UACC-257 melanoma
NCI-H460 lung = tested on: NCI-H460 lung
HOP-92 NSCLC = tested on: HOP-92 NSCLC
SNB-19 CNS = tested on: SNB-19 CNS
ACHN renal = tested on: ACHN renal
OVCAR-5 ovarian = tested on: OVCAR-5 ovarian
SR leukemia = tested on: SR leukemia

SMILES	TGI (HL-60(TB) leukemia)	TGI (UACC-62 melanoma)	TGI (HCT-116 colon)	TGI (UACC-257 melanoma)	TGI (NCI-H460 lung)	TGI (HOP-92 NSCLC)	TGI (SNB-19 CNS)	TGI (ACHN renal)	TGI (OVCAR-5 ovarian)	TGI (SR leukemia)
NC(=O)C1CCCN1C(=O)N(CCCl)N=O (stereo unspecified)	> 100 µM	> 100 µM	> 100 µM	> 100 µM	> 100 µM	> 100 µM	> 100 µM	> 100 µM	> 100 µM	> 100 µM
Cc1ccc(C)c(COCCOCn2c(=O)[nH]c(=O)c3cc(Br)ccc32)c1	> 100 µM	> 100 µM	> 100 µM	> 100 µM	> 100 µM	> 100 µM	> 100 µM	> 100 µM	> 100 µM	> 100 µM
CNc1nc2c(C)ccc3[nH]c(N(C)C)nc3c-2n1	69.5 µM	> 100 µM	> 100 µM	> 100 µM	> 100 µM	> 100 µM	65 µM	76.8 µM	> 100 µM	97.9 µM
Cc1cccc(C(=O)O)c1CC1NCCC2c3ccccc3NC12 (stereo unspecified)	> 100 µM	> 100 µM	> 100 µM	> 100 µM	> 100 µM	> 100 µM	> 100 µM	> 100 µM	> 100 µM	> 100 µM
O=C1CCCC[C@H]1C(O)CC1CC(=O)N(c2ccccc2)C(=O)C1 (stereo partly specified)	> 100 µM	> 100 µM	> 100 µM	> 100 µM	> 100 µM	> 100 µM	> 100 µM	> 100 µM	> 100 µM	> 100 µM
CC(C)N(/C(F)=N\C(=O)Nc1ccccc1C(F)(F)F)C(C)C	> 100 µM	–	> 100 µM	> 100 µM	> 100 µM	64.2 µM	> 100 µM	> 100 µM	> 100 µM	> 100 µM
O=c1[nH]c(=O)n2n1C1C=CC2CC1	> 100 µM	> 100 µM	> 100 µM	> 100 µM	> 100 µM	> 100 µM	> 100 µM	> 100 µM	> 100 µM	> 100 µM
COCn1c(C)c(C)c2c(=O)oc(C)nc21	> 100 µM	> 100 µM	> 100 µM	> 100 µM	> 100 µM	> 100 µM	> 100 µM	> 100 µM	> 100 µM	> 100 µM
CC(=O)OC1[C@H](n2ccnc2)C[C@H]2[C@@H]3CC=C4CC(N5CCCC5)CC[C@]4(C)[C@H]3CC[C@]12C (stereo partly specified)	81.3 µM	82.3 µM	> 100 µM	55.3 µM	> 100 µM	> 100 µM	> 100 µM	> 100 µM	> 100 µM	35.2 µM
Cc1cc(C)c2c(=O)cc(-c3ccc4ccccc4c3)[nH]c2n1	16.4 µM	> 100 µM	> 69.9 µM	> 59.6 µM	> 100 µM	78.8 µM	> 100 µM	> 100 µM	> 100 µM	18.6 µM
O=c1c2c3c(sc2nc2n1N=C(c1ccc([N+](=O)[O-])cc1)CS2)CCCC3	> 100 µM	> 100 µM	> 100 µM	> 100 µM	> 100 µM	> 100 µM	–	> 100 µM	> 100 µM	> 100 µM
CC1CC(C(=O)OC2OC(COC3OC(CO)C(OC4OC(C)C(O)C(O)C4O)C(O)C3O)C(O)C(O)C2O)C2CCC3(C)C(=CCC4(C)C3CCC3C(C)(CO)C(O)C(O)CC34C)C2C1C (stereo unspecified)	45.8 µM	32.7 µM	41.7 µM	> 10 µM	66.6 µM	34.6 µM	32 µM	> 10 µM	66.7 µM	41 µM
COc1cc(C(=O)OCCn2[nH]c(-c3ccc(Cl)cc3)nc2=S)cc(OC)c1OC	> 100 µM	> 100 µM	> 100 µM	> 100 µM	> 100 µM	95.2 µM	> 100 µM	> 100 µM	> 100 µM	> 100 µM
CC(=O)c1ccccc1NS(=O)(=O)c1ccc2nc(C)n(NS(=O)(=O)c3ccccc3C(C)=O)c(=O)c2c1	> 100 µM	> 100 µM	> 100 µM	> 100 µM	> 100 µM	> 100 µM	> 100 µM	> 100 µM	> 100 µM	> 100 µM
CC(=O)OC(=C(C#N)C#N)c1nccnc1C(C)=O	> 20 µM	> 20 µM	–	> 20 µM	> 20 µM	> 20 µM	> 20 µM	> 20 µM	> 20 µM	> 20 µM
CC#CCCCC1(C)CCCNC1=S (stereo unspecified)	> 10 µM	> 10 µM	–	> 10 µM	> 10 µM	> 10 µM	> 10 µM	> 10 µM	> 10 µM	> 10 µM
CN=C(NC)N(C)c1nc(=[N+](C)C)ss1	> 100 µM	> 100 µM	> 100 µM	> 100 µM	> 100 µM	> 100 µM	> 100 µM	> 100 µM	> 100 µM	> 100 µM
COc1ccc(N(C(=O)NCCO)c2ccccc2)cc1	> 100 µM	> 100 µM	> 100 µM	> 100 µM	> 100 µM	> 100 µM	> 100 µM	> 100 µM	> 100 µM	> 100 µM
O=S(=O)(/N=C(\NO)Nc1ccc(Cl)cc1)C1CC=C(c2ccon2)S1 (stereo unspecified)	35.6 µM	> 100 µM	> 100 µM	> 100 µM	> 65.8 µM	> 85.5 µM	> 100 µM	> 100 µM	> 100 µM	19.8 µM
